ChEMBL document CHEMBL1201862, “PubChem BioAssay data set” (2004)
Activity calls are given as the source filed them.

Experiments:
[1] = molecular target: T1, Small ubiquitin-related modifier 1 (Homo sapiens, UniProt P63165); assay: inhibitors of SUMO1 peptide binding, dose response, biochemical, fluorescence polarization, uHTS hits (AID 624382); format: functional; conditions: read-out: IC50_Mean
[2] = molecular target: T1, Small ubiquitin-related modifier 1; assay: inhibitors of SUMO1 partner interactions, dose response, biochemical, FRET (AID 624383); format: functional; conditions: read-out: IC50_Mean
[3] = test system: Streptococcus; assay: Group A Streptococcus viability loss, dose response, counter-screen for streptokinase expression inhibitor project, luminescence, BacTiterGlo (AID 1915); format: functional, organism-based;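 note: potency for reduction of bacterial viability or growth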
[4] = molecular target: T2, Streptokinase A (Streptococcus pyogenes serotype M1, UniProt P10520); assay: S. pyogenes streptokinase expression inhibitors, potency, dose response, plasminogen activation absorbance, OD405 (AID 1914); format: functional, Streptococcus pyogenes M1 GAS;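 note: secreted streptokinase activity via plasminogen activation per viability signal from cell pellet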
T2 sequence (P10520 whole entry): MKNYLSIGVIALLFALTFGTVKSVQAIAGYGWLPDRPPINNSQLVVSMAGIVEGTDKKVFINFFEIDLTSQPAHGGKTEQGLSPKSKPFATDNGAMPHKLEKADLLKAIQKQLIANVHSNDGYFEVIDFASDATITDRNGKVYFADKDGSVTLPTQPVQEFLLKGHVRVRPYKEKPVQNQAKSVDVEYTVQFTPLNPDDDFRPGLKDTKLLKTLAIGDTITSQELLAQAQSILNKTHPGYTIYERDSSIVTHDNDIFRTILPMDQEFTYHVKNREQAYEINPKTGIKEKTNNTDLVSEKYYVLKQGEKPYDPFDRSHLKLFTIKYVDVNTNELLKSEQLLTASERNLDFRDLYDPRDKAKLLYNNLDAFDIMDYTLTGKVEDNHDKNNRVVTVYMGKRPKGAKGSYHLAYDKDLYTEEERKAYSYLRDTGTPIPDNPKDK

[5] = test system: Streptococcus sp. 'group A'; assay: growth inhibition of control SK(-) GAS strain, dose response, counter-screen for streptokinase expression inhibitor project, luminescence, kanamycin, BacTiterGlo, confirmation (AID 1900); format: functional, organism-based
[6] = molecular target: T3, Fatty acid synthase (Homo sapiens, UniProt P49327); assay: FAS thioesterase domain inhibitors, dose response, biochemical, kinetic fluorescence intensity (AID 624326); format: functional;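 note: rate of fluorescence rise from hydrolysis of a fluorogenic O-methyl fluorescein ester substrate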
[7] = molecular target: T3, Fatty acid synthase; assay: FAS thioesterase domain inhibitors, dose response, biochemical, endpoint fluorescence intensity, uHTS hits (AID 624327); format: functional;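 note: fluorescence from hydrolysis of an O-methyl fluorescein acyl ester substrate by the enzyme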
[8] = molecular target: T4, Beta-lactamase (Pseudomonas aeruginosa, UniProt Q79MP6); assay: […] counterscreen for selective VIM-2 inhibitors: dose response biochemical high throughput screening assay to identify inhibitors of IMP-1 metallo-beta-lactamase.
[9] = molecular target: Beta-lactamase (Salmonella choleraesuis (strain SC-B67), UniProt Q5J463); assay: Epi-absorbance-based counterscreen for selective VIM-2 inhibitors: dose response biochemical high throughput screening assay to identify inhibitors of TEM-1 serine-beta-lactamase.
[10] = molecular target: T4, Beta-lactamase; assay: IMP-1 metallo-beta-lactamase inhibitors, dose response, selectivity assay for VIM-2 inhibitor project, biochemical, epi-absorbance (AID 1920)
[11] = molecular target: T5, Low molecular weight phosphotyrosine protein phosphatase (Homo sapiens, UniProt P24666); format: functional; conditions: read-out: IC50_Mean
T5 sequence (P24666 whole entry): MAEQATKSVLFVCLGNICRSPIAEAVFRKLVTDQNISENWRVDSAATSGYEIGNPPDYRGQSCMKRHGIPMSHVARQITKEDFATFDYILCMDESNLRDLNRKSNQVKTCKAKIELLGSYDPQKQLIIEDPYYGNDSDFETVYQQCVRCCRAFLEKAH

[12] = molecular target: T5, Low molecular weight phosphotyrosine protein phosphatase; format: functional; conditions: read-out: IC50_Mean; remark: listed apart in the source
[13] = molecular target: Photoreceptor-specific nuclear receptor (Homo sapiens, UniProt Q9Y5X4); format: functional, cell-based;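 note: CHO-S cells with Gal4-NCOR and VP16-NR2E3 two-hybrid luciferase reporter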
[14] = inhibitors of intracellular T. cruzi replication, confirmation, NIH3T3 host cells, beta-gal luminescence (AID 2044); format: functional, cell-based;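 note: intracellular parasites grown in NIH/3T3 mouse fibroblasts as host cells; luminescent beta-galactosidase reporter signal from transgenic T. cruzi replicating inside host cells; inhibitors lower the luminescence signal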
[15] = cytotoxicity toward NIH3T3 fibroblasts, dose response, counter-screen, cell-based, ATP luminescence, mouse fibroblasts (AID 2010); format: functional;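 note: cells exposed to compound for about 90 hours before reading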
[16] = molecular target: Induced myeloid leukemia cell differentiation protein Mcl-1 (Homo sapiens, UniProt Q07820); format: functional
[17] = molecular target: Large T antigen (Simian virus 40, UniProt P03070); format: functional, Betapolyomavirus macacae;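 note: Confirmatory-stage PubChem screen for compounds that inhibit SV40 T antigen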
[18] = molecular target: DNA (cytosine-5)-methyltransferase 1 (Homo sapiens, UniProt P26358); assay: DNMT1 methyltransferase inhibitors, confirmation, biochemical, fluorescent molecular beacon (AID 602386); format: functional
[19] = molecular target: T6, Histone-lysine N-methyltransferase NSD2 (Homo sapiens, UniProt O96028); format: biochemical
T6 sequence (O96028 whole entry): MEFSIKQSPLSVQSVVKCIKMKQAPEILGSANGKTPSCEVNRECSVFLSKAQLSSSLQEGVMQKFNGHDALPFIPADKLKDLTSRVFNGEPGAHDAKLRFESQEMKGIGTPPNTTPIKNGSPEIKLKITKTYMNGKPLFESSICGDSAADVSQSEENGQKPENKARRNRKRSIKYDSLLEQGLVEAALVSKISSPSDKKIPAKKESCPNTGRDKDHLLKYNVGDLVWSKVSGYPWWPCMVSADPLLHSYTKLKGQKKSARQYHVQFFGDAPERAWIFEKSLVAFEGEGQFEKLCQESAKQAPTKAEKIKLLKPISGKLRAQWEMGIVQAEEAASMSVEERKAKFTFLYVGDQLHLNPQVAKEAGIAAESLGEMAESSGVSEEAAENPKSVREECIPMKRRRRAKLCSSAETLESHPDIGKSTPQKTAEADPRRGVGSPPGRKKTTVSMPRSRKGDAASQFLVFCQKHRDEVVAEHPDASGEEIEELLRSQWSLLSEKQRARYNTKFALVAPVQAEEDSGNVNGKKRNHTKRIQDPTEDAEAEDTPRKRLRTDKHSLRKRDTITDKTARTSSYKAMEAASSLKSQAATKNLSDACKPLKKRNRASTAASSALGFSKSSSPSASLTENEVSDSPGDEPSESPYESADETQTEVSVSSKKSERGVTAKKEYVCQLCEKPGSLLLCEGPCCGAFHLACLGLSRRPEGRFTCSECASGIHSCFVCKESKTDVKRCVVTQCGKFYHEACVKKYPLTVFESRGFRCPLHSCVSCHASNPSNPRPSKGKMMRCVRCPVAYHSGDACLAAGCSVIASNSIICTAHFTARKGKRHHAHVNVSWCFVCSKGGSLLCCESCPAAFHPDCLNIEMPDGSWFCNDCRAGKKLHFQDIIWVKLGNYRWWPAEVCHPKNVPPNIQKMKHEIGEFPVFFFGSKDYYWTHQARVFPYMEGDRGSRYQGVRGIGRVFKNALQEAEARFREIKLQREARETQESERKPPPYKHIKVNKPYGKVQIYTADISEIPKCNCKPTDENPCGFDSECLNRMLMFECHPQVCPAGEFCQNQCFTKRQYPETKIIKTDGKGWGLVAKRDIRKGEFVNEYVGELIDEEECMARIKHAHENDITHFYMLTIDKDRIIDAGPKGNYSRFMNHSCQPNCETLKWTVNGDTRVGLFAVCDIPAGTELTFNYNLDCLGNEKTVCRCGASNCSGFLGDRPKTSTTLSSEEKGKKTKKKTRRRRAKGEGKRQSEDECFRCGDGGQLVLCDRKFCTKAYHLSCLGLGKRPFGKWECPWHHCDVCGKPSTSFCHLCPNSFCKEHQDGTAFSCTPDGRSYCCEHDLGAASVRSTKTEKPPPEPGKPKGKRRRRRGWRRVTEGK

[20] = molecular target: T7, Ubiquitin-conjugating enzyme E2 N (Homo sapiens, UniProt P61088); format: functional;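 note: Dose-response confirmation in a TR-FRET assay detecting UBC13-driven polyubiquitin chain formation, inhibition measured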
T7 sequence (P61088 whole entry): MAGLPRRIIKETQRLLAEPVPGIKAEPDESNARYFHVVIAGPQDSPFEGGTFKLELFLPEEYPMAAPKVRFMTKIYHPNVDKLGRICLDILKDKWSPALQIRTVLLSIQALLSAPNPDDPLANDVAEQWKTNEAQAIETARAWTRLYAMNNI

[21] = molecular target: T8, Rac GTPase-activating protein 1 (Homo sapiens, UniProt Q9H0H5); assay: MgcRacGAP GTPase-activating activity inhibitors, confirmation, biochemical, ADP Hunter fluorescence, primary and confirmatory (AID 624330); format: functional
T8 sequence (Q9H0H5 whole entry): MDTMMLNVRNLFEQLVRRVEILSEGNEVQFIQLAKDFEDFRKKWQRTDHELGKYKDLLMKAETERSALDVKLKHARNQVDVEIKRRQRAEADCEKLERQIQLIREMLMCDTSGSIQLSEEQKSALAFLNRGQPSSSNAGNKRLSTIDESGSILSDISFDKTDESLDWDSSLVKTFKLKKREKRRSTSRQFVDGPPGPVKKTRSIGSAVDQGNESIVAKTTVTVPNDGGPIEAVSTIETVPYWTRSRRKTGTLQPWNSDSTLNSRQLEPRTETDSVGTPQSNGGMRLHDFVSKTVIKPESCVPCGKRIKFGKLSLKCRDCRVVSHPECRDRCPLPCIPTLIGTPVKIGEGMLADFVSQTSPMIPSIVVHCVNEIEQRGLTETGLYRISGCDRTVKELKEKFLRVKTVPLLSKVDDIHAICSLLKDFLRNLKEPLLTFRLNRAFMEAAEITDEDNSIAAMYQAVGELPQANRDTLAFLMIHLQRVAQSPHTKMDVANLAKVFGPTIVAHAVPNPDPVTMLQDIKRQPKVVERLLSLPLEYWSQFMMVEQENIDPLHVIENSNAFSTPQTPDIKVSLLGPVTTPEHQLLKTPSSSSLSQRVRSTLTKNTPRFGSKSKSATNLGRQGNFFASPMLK

[22] = HeLa cell cytotoxicity, dose response, cytotoxicity control for MgcRacGAP inhibitor project (AID 624300); format: functional
[23] = microbe, parasite or virus in culture; format: functional; conditions: Mycobacterium tuberculosis
[24] = HepG2 cell cytotoxicity, dose response, cytotoxicity control for Shn3 inhibitor project, CellTiter-Glo, cherry-picked (AID 624134); format: functional, cell-based
[25] = control 3'UTR Renilla luciferase suppression, dose response, counter-screen for Shn3 inhibitor project, cell-based, Clone20-Shn3RL, cherry-picked (AID 624133); format: functional
[26] = Shn3 3'UTR reporter inhibitors, dose response, cell-based, Clone20 osteoblasts, firefly luciferase, cherry-picked (AID 624132); format: functional;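 note: firefly luciferase luminescence from reporter carrying the Shn3 3'UTR in osteoblasts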

T1 sequence (P63165 whole entry): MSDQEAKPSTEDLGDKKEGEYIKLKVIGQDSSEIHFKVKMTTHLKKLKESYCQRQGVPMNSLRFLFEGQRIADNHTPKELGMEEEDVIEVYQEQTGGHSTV
T3 sequence (P49327 whole entry, the tested form may be a part): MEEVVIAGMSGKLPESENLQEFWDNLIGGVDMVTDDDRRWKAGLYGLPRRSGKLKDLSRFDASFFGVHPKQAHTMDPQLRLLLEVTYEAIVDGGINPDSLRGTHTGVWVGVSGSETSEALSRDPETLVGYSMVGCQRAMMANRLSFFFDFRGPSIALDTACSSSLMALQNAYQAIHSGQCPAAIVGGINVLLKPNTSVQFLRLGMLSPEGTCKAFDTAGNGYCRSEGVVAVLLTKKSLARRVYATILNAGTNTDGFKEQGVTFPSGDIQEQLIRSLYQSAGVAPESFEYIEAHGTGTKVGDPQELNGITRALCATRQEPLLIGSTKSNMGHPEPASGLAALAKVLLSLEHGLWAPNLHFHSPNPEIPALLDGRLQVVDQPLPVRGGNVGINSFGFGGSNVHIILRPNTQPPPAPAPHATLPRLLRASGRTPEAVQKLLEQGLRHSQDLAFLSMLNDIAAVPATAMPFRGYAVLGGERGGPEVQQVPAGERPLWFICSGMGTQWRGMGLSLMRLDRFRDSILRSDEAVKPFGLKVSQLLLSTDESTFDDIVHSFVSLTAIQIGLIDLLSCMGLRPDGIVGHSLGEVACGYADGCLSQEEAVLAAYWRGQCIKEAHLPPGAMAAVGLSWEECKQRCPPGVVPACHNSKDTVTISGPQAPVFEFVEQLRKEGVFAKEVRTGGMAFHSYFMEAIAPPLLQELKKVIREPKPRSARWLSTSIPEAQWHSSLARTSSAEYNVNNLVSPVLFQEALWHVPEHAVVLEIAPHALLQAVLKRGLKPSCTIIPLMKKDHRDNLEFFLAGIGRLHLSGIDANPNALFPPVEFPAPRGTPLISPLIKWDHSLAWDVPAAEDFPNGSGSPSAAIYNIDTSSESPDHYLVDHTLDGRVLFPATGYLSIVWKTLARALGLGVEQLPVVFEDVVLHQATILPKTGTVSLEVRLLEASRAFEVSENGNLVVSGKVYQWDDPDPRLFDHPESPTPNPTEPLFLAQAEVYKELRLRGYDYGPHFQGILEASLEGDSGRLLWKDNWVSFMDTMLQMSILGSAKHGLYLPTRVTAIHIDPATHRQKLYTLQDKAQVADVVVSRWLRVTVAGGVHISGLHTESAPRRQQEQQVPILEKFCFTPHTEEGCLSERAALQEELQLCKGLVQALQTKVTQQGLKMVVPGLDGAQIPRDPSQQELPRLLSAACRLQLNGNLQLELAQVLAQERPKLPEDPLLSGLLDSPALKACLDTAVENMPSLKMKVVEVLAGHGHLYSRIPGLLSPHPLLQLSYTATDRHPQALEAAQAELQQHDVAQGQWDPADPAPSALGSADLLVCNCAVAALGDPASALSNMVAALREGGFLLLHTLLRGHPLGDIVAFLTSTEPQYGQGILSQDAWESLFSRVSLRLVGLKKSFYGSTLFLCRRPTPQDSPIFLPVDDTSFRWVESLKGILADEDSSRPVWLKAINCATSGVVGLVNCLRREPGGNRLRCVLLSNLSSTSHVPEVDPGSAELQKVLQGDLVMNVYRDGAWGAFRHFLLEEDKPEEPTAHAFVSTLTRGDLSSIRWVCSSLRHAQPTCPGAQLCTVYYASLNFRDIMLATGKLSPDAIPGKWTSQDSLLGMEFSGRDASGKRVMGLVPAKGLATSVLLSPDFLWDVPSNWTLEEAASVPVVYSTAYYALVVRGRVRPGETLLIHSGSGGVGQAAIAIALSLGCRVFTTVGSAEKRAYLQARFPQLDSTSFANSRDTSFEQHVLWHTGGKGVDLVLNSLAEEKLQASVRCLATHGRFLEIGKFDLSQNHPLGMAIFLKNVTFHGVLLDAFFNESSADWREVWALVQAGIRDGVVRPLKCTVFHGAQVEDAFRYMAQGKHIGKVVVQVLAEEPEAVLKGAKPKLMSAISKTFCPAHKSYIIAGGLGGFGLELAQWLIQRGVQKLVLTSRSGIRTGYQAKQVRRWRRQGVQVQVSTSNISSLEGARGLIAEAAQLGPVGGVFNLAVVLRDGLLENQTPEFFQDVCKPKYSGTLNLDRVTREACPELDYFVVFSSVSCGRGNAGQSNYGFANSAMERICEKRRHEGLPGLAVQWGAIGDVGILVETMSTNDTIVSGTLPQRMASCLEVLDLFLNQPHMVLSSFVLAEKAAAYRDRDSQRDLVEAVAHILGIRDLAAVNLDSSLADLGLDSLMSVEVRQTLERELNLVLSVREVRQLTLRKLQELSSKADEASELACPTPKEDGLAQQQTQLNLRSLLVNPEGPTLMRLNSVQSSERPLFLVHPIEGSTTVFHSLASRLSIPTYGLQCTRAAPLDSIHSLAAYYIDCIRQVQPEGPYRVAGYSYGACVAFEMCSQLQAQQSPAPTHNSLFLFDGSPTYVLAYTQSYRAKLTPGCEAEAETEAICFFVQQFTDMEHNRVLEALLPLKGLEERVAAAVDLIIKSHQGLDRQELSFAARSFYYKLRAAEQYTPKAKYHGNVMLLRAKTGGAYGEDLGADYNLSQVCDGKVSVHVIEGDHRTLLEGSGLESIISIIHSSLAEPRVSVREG
T4 sequence (Q79MP6 whole entry): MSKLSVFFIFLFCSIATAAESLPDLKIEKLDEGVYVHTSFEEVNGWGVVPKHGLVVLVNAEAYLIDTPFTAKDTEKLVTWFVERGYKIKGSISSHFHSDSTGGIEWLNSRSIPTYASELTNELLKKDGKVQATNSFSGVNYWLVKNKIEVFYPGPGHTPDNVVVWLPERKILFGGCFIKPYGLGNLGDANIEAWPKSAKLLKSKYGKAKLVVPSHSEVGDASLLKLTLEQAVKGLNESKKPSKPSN
Sequence of Beta-lactamase (Salmonella choleraesuis (strain SC-B67), UniProt Q5J463) (Q5J463 whole entry): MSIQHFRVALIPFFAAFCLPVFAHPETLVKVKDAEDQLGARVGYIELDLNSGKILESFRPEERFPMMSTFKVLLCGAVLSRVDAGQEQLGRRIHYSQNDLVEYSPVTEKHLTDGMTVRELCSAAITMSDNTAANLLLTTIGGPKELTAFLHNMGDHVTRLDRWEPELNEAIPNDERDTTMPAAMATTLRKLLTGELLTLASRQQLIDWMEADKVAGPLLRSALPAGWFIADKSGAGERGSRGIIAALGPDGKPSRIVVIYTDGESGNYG
Sequence of Photoreceptor-specific nuclear receptor (Q9Y5X4 whole entry, the tested form may be a part): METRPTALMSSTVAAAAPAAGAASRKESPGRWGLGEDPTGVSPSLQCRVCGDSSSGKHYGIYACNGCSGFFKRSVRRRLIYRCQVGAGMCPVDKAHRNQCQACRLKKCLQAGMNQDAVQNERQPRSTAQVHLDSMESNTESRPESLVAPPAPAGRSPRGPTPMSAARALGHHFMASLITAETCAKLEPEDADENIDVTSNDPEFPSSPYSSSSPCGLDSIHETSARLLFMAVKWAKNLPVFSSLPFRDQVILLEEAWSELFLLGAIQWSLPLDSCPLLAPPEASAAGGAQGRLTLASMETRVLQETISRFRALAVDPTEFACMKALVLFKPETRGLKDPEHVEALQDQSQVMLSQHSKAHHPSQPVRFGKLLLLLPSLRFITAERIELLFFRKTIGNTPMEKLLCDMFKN
Sequence of Large T antigen (P03070 whole entry): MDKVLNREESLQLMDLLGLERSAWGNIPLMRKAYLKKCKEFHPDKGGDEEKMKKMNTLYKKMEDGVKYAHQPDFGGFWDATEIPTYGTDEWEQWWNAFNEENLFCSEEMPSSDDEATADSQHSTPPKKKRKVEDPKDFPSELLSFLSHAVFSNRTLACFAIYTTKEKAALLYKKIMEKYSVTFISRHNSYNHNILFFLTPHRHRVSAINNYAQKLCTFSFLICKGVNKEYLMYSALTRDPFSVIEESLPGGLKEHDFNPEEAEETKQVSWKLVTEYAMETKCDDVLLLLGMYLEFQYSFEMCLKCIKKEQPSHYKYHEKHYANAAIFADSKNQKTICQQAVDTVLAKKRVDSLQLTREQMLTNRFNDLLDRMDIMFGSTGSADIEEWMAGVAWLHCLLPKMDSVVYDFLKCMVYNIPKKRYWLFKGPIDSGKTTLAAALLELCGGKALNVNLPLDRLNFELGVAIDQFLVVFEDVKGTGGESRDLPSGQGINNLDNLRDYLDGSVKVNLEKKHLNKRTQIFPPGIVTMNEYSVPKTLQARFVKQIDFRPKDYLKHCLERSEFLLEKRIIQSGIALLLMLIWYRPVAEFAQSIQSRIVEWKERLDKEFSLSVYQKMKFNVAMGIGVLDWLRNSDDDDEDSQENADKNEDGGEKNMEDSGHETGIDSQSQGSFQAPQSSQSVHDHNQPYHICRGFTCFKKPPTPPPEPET
Sequence of Induced myeloid leukemia cell differentiation protein Mcl-1 (Q07820 whole entry): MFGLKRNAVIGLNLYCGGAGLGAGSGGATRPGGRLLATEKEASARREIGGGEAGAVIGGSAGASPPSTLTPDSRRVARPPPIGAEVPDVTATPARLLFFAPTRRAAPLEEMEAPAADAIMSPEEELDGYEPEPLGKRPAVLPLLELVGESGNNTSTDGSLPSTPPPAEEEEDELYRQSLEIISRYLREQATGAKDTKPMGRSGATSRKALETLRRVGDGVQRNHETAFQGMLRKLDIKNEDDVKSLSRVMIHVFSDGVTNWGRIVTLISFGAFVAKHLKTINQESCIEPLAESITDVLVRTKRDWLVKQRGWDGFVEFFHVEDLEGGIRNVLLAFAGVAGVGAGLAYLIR

Compound: CC(C)C[C@@H](CNCC(=O)[C@H](Cc1ccccc1)NC(=O)c1nc[nH]c1C(=O)N[C@H](CN)CC(C)C)NC(=O)c1[nH]cnc1C(=O)N[C@@H](CC(=O)O)C(=O)O
- IC50 [1]: > 66.6 µM (inactive)
- IC50 [2]: 20.4 µM (inactive)

Compound: COc1ccc(-c2csc(NC(=S)NC(=O)c3cccs3)n2)cc1OC
- IC50 [1]: > 66.6 µM (inactive)
- EC50 [3]: 74.3 µM (active)
- IC50 [2]: 7.27 µM (active)
- EC50 [4]: > 150 µM (not active)
- EC50 [5]: 23.4 µM (active)

Compound: CC(C)Oc1ccc(Cc2nnc(S)n2Cc2ccccc2)cc1Cl
- IC50 [6]: 6.09 µM (active)
- IC50 [7]: 6.4 µM (active)

Compound: O=[N+]([O-])c1ccc(S(=O)(=O)N/N=C/c2ccc3c(c2)OCO3)cc1
- IC50 [6]: 5.36 µM (active)
- IC50 [7]: 5.55 µM (active)

Compound: Cc1n[nH]c(C)c1CCCCOc1ccc([N+](=O)[O-])cc1
- IC50 [8]: > 59.6 µM (inactive)
- IC50 [9]: > 59.6 µM (inactive)
- IC50 [10]: > 59.6 µM (inactive)

Compound: Cc1c(C)c2ccc(OCC(=O)N3CCC[C@@H]3C(=O)O)c(C)c2oc1=O
- IC50 [8]: > 59.6 µM (inactive)
- IC50 [9]: > 59.6 µM (inactive)
- IC50 [10]: > 59.6 µM (inactive)

Compound: CC(C)OCCCNc1nc(-c2ccccc2)nc2ccccc12
- IC50 [11]: 22.9 µM (inactive)
- IC50 [12]: 11.7 µM (active)

Compound: C#Cc1cccc(Nc2nc(NCc3ccccc3)nc3ccsc23)c1
- IC50 [13]: 7.02 µM (active)

Compound: Cc1cc(=O)n2nc(-c3ccc(C(C)(C)C)cc3)cc2[nH]1
- IC50 [6]: 15 µM (active)
- EC50 [14]: 0.646 µM (active)
- EC50 [15]: > 60 µM (not active)
- IC50 [7]: 9.51 µM (active)

Compound: CCCCN1C(=O)/C(=C/C=C/c2ccco2)C(=O)NC1=S
- IC50 [16]: 2.18 µM (active)
- IC50 [17]: 7.95 µM (active)
- IC50 [18]: 3.39 µM (active)
- AC50 [19]: 4.72 µM (active)

Compound: Nc1nc(N)c(Cc2ccc(Cl)cc2Cl)c(N)n1
- IC50 [11]: 11.9 µM (active)
- IC50 [12]: 7.44 µM (active)

Compound: CC(=O)Nc1cc(O)c2cccnc2n1
- IC50 [11]: 38.7 µM (inactive)
- IC50 [12]: 25.9 µM (inactive)

Compound: CCOC(=O)c1c(C)n(-c2ccc(C)cc2)c2ccc(OCC(O)CNCC3CCCO3)cc12 (configuration not stated)
- EC50 [14]: 1.51 µM (active)
- IC50 [20]: > 20 µM (inactive)
- IC50 [21]: 131 µM (active)
- EC50 [15]: > 60 µM (not active)
- CC50 [22]: 39.7 µM (active)
- CC50 [23]: 13.2 µM (active)

Compound: NS(=O)(=O)c1ccc(CCNc2nn3c(-c4cccc(OC(F)(F)F)c4)cnc3s2)cc1
- AC50 [24]: 52.5 µM (active)
- AC50 [25]: 0.852 µM (active)
- IC50 [13]: 6.96 µM (active)
- AC50 [26]: 3.93 µM (active)
